Measured values from US11529422B2, “Polymer linkers and their uses” (priority 2016, dated 2022).
Where a SMILES comes first, the peptide text is derived from it. [ ]: non-standard residue; d: D form. The star is where a group is joined. Dolaproine = CO[C@@H]([C@@H]1CCCN1)[C@@H](C)C(=O)O; Dil = CC[C@H](C)[C@H](NC)[C@@H](CC(=O)O)OC; NMe2Val = CC(C)[C@@H](C(=O)*)N(C)C

Experiments:
BT-474 cells = experiment: Cell Viability Assay (CellTiter-Glo), BT-474; assay type: cell-based
Procedure: (§1) Compounds and conjugates were tested for their activity using the Cell Viability Assay (CellTiter-Glo® Luminescent Cell Viability Assay from Promega), which measures the number of viable cells in culture after treatment with the inventive compounds or conjugates for 72 hours based on quantitation of the ATP present (Cell Viability. IC50).

NCI-N87 cells = experiment: Cell Viability Assay (CellTiter-Glo), NCI-N87; assay type: cell-based
Procedure: as §1

SK-BR-3 cells = experiment: Cell Viability Assay (CellTiter-Glo), SK-BR-3; assay type: cell-based
Procedure: as §1

HCC1954 cells = experiment: Cell Viability Assay (CellTiter-Glo), HCC1954; assay type: cell-based
Procedure: as §1

MCF7 breast cancer cell = experiment: Cell Viability Assay (CellTiter-Glo), MCF7; assay type: cell-based; settings: MCF7, Table 2 (another assay)
Procedure: as §1

[1] = tested on: HER2 expressing cancer cell lines; settings: for activity compared with free Auristatin F, in words: summary of Table 1
Procedure: Three HER2 expressing breast cancer cell lines (BT474, HCC1954 and SK-BR-3) and HER2 expressing gastric cancer cell line NCI-N87 were used in the viability assay. The cells were placed in opaque-walled 96-well plate and allowed to adhere overnight at 37° C. in 5% CO2 and 95% humidity atmosphere. Cell density per well: 7000 (BT474), 3000 (HCC1954), 5000 (NCI-N87), 4000 (SK-BR-3). The test compounds or conjugates were added to experimental wells, and incubate at 37° C. in 5% CO2 and 95% humidity atmosphere for 72 hours. The plates were equilibrated at room temperature for 30 min. CellTiter-Glo® reagent equal to the volume of cell culture medium present in each well was added. After cell lysis on an orbital shaker for 2 min, the plate was incubated at room temperature for 10 min. Luminescence were recorded using EnVision® Multilabel Reader (PerkinElmer, 2104-0010A). GraphPad Prism 5.0 was used to analyze the data. The dose response curves were determined, and the IC50 value was calculated.
Another assay measured the IC50 values for compounds 24 and 25 on the same cell lines and MCF7 breast cancer cell.

[2] = BT-474, Table 2 (another assay)
[3] = NCI-N87, Table 2 (another assay)
[4] = SK-BR-3, Table 2 (another assay)
[5] = HCC1954, Table 2 (another assay)

Q: What does the source list for `CC[C@H](C)[C@@H]([C@@H](CC(=O)N1CCC[C@H]1[C@H](OC)[C@@H](C)C(=O)N[C@@H](Cc1ccccc1)C(=O)O)OC)N(C)C(=O)[C@@H](NC(=O)[C@H](C(C)C)N(C)C)C(C)C` [Auristatin F, reference compound] (NMe2Val-V[Dil][Dolaproine]F-OH)?
A: IC50 (BT-474 cells; BT-474, 72 hours, Table 1): 264 nM; IC50 (BT-474 cells; [2]): 1540 nM; IC50 (NCI-N87 cells; NCI-N87, 72 hours, Table 1): 69.8 nM; IC50 (NCI-N87 cells; [3]): 386 nM; IC50 (SK-BR-3 cells; SK-BR-3, 72 hours, Table 1): 51 nM; IC50 (SK-BR-3 cells; [4]): 233 nM; IC50 (HCC1954 cells; HCC1954, 72 hours, Table 1): 38.2 nM; IC50 (HCC1954 cells; [5]): 200 nM; IC50 (MCF7 breast cancer cell): 1950 nM

Q: What does the source list for `N.N.[Cl][Pt][Cl]` [Cisplatin, reference compound]?
A: IC50 (BT-474 cells; BT-474, 72 hours, Table 1): > 100000 nM; IC50 (BT-474 cells; [2]): 38500 nM; IC50 (NCI-N87 cells; NCI-N87, 72 hours, Table 1): 4560 nM; IC50 (NCI-N87 cells; [3]): 1660 nM; IC50 (SK-BR-3 cells; SK-BR-3, 72 hours, Table 1): 1920 nM; IC50 (SK-BR-3 cells; [4]): 871 nM; IC50 (HCC1954 cells; HCC1954, 72 hours, Table 1): 6050 nM; IC50 (HCC1954 cells; [5]): 6230 nM; IC50 (MCF7 breast cancer cell): 9150 nM

Q: “poly(1-hydroxymethylethylene hydroxy-methyl formal)-SPA-(auristatin F 2-(2-hydroxy-ethoxy)-ethylamide L-Alanine)-(Trastuzumab-MCC) [Compound 16]” was tested. Which IC50 (BT-474 cells; BT-474, 72 hours, Table 1) did it give?
A: The IC50 was 0.39 nM.

Q: What about the IC50 (NCI-N87 cells; NCI-N87, 72 hours, Table 1) of the same molecule?
A: Its IC50 is 55.6 nM.

Q: And the IC50 (SK-BR-3 cells; SK-BR-3, 72 hours, Table 1)?
A: Its IC50 is 22 nM.

Q: What about the IC50 (HCC1954 cells; HCC1954, 72 hours, Table 1) of the same molecule?
A: The IC50 was 0.13 nM.

Q: What about the “activity compared with free Auristatin F, in words” value [1] of the same molecule?
A: The value was “inhibition of HER2 increases significantly”.

Q: How did the IC50 (BT-474 cells; BT-474, 72 hours, Table 1) turn out when “poly(1-hydroxymethylethylene hydroxy-methyl formal)-SPA-(auristatin F 2-(2-hydroxy-ethoxy)-ethylamide L-Alanine)-SSPy [Compound 15]” was run?
A: The IC50 was 57.4 nM.

Q: What about the IC50 (NCI-N87 cells; NCI-N87, 72 hours, Table 1) of the same molecule?
A: Its IC50 is > 500 nM.

Q: And the IC50 (SK-BR-3 cells; SK-BR-3, 72 hours, Table 1)?
A: The IC50 was 37 nM.

Q: What about the IC50 (HCC1954 cells; HCC1954, 72 hours, Table 1) of the same molecule?
A: The IC50 was 23.9 nM.

Q: And the “activity compared with free Auristatin F, in words” value [1]?
A: Its value is “activity similar to free Auristatin F”.

Q: Which IC50 (BT-474 cells; BT-474, 72 hours, Table 1) does the source give for “poly(1-hydroxymethylethylene hydroxy-methyl formal)-SPA-(auristatin F 2-(2-hydroxy-ethoxy)-ethylamide L-Alanine)-Trastuzumab [Compound 17]” here?
A: Its IC50 is < 0.05 nM.

Q: What about the IC50 (NCI-N87 cells; NCI-N87, 72 hours, Table 1) of the same molecule?
A: Its IC50 is < 0.05 nM.

Q: What about the IC50 (SK-BR-3 cells; SK-BR-3, 72 hours, Table 1) of the same molecule?
A: The IC50 was < 0.05 nM.

Q: And the IC50 (HCC1954 cells; HCC1954, 72 hours, Table 1)?
A: The IC50 was < 0.05 nM.

Q: And the “activity compared with free Auristatin F, in words” value [1]?
A: The value was “inhibition of HER2 increases significantly”.

Q: How did the IC50 (BT-474 cells; [2]) turn out when “poly(1-hydroxymethylethylene hydroxy-methyl formal)-SPA-(auristatin F 2-(2-hydroxy-ethoxy)-ethylamide L-Alanine)-Trastuzumab [Compound 25]” was run?
A: Its IC50 is 0.4 nM.

Q: What about the IC50 (NCI-N87 cells; [3]) of the same molecule?
A: Its IC50 is 0.3 nM.

Q: And the IC50 (SK-BR-3 cells; [4])?
A: Its IC50 is 0.1 nM.

Q: And the IC50 (HCC1954 cells; [5])?
A: Its IC50 is 0.2 nM.

Q: What about the “activity compared with compound 24 and controls, in words” value ([1]; summary of Table 2, same cell lines and MCF7) of the same molecule?
A: Its value is “significant increase in activity as compared to compound 24”.

Q: What about the IC50 (MCF7 breast cancer cell) of the same molecule?
A: Its IC50 is 3.3 nM.

Q: For “poly(1-hydroxymethylethylene hydroxy-methyl formal)-SPA-(auristatin F 2-(2-hydroxy-ethoxy)-ethylamide L-Alanine)-maleimide [Compound 14]”, which IC50 (BT-474 cells; BT-474, 72 hours, Table 1) is on record?
A: Its IC50 is 87.9 nM.

Q: And the IC50 (NCI-N87 cells; NCI-N87, 72 hours, Table 1)?
A: Its IC50 is > 500 nM.

Q: What about the IC50 (SK-BR-3 cells; SK-BR-3, 72 hours, Table 1) of the same molecule?
A: Its IC50 is 48 nM.

Q: What about the IC50 (HCC1954 cells; HCC1954, 72 hours, Table 1) of the same molecule?
A: The IC50 was 32.2 nM.

Q: And the “activity compared with free Auristatin F, in words” value [1]?
A: The value was “activity similar to free Auristatin F”.

Q: Which IC50 (BT-474 cells; [2]) does the source give for “poly(1-hydroxymethylethylene hydroxy-methyl formal)-SPA-(auristatin F 2-(2-hydroxy-ethoxy)-ethylamide L-Alanine)-maleimide [Compound 24]” here?
A: Its IC50 is 58 nM.

Q: And the IC50 (NCI-N87 cells; [3])?
A: The IC50 was 91.5 nM.

Q: And the IC50 (SK-BR-3 cells; [4])?
A: Its IC50 is 56.6 nM.

Q: What about the IC50 (HCC1954 cells; [5]) of the same molecule?
A: The IC50 was 45.9 nM.

Q: And the IC50 (MCF7 breast cancer cell)?
A: Its IC50 is 230 nM.
